{"source": "patent US20210253651A1", "about": "“METHOD FOR PRODUCING ORGANIC COMPOUND-ENCAPSULATING FERRITIN” (Ajinomoto Co., Inc., priority 2018, published 2021)", "key": {"[1]": {"target": "T1, FTH-U2AF ferritin (Homo sapiens, UniProt P02794)", "T1 construct": "pET20-FTH carrying a DNA encoding a human-derived ferritin H chain monomer as a template; made in house; host or cells: Escherichia coli BL21 (DE3), plasmid pET20-FTH-U2AF", "T1 sequence (P02794 with tags, fused parts or gaps)": "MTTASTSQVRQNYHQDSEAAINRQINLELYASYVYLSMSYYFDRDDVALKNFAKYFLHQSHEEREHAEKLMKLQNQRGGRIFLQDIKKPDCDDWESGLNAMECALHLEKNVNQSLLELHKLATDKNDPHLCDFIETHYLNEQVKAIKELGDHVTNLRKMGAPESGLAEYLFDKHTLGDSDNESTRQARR", "experiment": "one-step incorporation of DOX into FTH-U2AF ferritin", "assay_type": "physicochemical", "conditions": "pH 9, 50° C., 60 minutes, DOX 0.3 mg/L", "procedure": "PCR was carried out using pET20-FTH carrying a DNA encoding a human-derived ferritin H chain monomer as a template as well as the following primers: 5′-[…]-3′ (SEQ ID NO: 18) and 5′-[…]-3′ (SEQ ID NO: 13), in order to obtain a DNA encoding the human-derived ferritin H chain (FTH-U2AF) in which an RNA recognition peptide (U2AF: TRQARR (SEQ ID NO: 17) R Tan and AD Frankel, Proc Natl Acad Sci USA 92, 5282-5286. (1995) which in incorporated herein by reference in its entirety)) is inserted and fused at the C-terminus of the ferritin monomer. The resulting PCR products were purified using Wizard DNA Clean-Up System (Promega Corporation), and then treated with restriction enzymes, DpnI and NdeI (Takara Bio Inc.) for self-ligation in order to construct an expression plasmid (pET20-FTH-U2AF) carrying a gene encoding FTH-U2AF monomer. […]\nDOX was mixed with 1 mL of 50 mM Tris-HCl buffer (pH 9) that contains each mutate ferritin at a final concentration of 1 mg/mL, to achieve a final concentration of 0.3 mg/L, and then the resulting solutions were left to stand at 50° C. for 60 minutes. […] The concentration of contained protein was determined using the protein assay CBB solution (Nacalai Tesque, Inc.) as well as bovine albumin as a standard. The DOX concentration was determined based on analysis of the absorbance at 480 nm."}, "[2]": {"conditions": "cited from earlier work"}}, "note": "Structures can show the parent of a compound that is named as a salt. Where two headings read alike, the source gives them in different places.", "data": [{"compound": "COc1cccc2c1C(=O)c1c(O)c3c(c(O)c1C2=O)C[C@@](O)(C(=O)CO)C[C@@H]3OC1CC(N)C(O)C(C)O1", "note": "(stereo partly shown) [DOX, Doxorubicin hydrochloride]", "values": [{"measurement": "incorporation efficiency of the reagent", "setting": "[1]", "value": "17.9 % (wt)"}, {"measurement": "pKa", "setting": "[2]; second pKa value", "value": 8.46}, {"measurement": "pKa", "setting": "[2]; single or first pKa value", "value": 7.34}, {"measurement": "pKa", "setting": "[2]; third printed pKa value", "value": 9.46}]}]}
